Measurements as given in US8013153B2, “Substituted pyrimidine kinase inhibitors” (Janssen Pharmaceutica, N.V., priority 2006, dated 2011).

Legend:
HER2 cytoplasmic domain = target: T1, HER2 cytoplasmic domain (Homo sapiens, UniProt P04626); test: HER2 Kinase Screening Assay; format: biochemical; settings: > means no observed 50% inhibition at the indicated test concentration; ~ means approximately 50% inhibition at that concentration
T1 construct: polyhistidine (N)

CDK1:Cyclin-B = target: T2, CDK1:Cyclin-B (Homo sapiens, UniProt P06493); test: CDK1 Screening Assay; format: biochemical
T2 construct: purchased New England Biolabs, Beverly, Mass; 6020; host or cells: insect cells
T2 sequence (P06493 whole entry): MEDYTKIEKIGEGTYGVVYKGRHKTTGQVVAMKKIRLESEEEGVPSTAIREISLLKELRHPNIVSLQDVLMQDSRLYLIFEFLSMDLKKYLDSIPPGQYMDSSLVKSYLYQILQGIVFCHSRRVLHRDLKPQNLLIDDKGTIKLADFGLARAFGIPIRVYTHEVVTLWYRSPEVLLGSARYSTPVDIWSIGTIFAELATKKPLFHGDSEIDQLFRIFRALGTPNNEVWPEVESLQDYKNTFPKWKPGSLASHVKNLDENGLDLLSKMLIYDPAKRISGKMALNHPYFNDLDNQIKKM
T2 sequence (P14635 whole entry partner): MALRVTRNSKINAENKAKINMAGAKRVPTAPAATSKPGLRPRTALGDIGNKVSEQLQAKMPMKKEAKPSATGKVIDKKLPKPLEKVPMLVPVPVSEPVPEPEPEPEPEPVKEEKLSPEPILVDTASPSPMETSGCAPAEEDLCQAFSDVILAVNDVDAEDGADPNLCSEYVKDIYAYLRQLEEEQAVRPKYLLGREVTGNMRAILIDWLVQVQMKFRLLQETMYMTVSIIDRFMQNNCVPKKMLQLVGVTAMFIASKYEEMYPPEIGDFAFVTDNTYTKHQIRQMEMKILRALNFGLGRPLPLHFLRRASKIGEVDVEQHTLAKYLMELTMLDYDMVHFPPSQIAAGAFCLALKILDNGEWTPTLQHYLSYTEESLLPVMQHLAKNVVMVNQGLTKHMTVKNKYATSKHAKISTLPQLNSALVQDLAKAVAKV

[1] = system: spontaneous intestinal adenoma formation; test: C57BL/6J-APC Min-mouse model of human adenomatous polyposis coli; format: in vivo, C57BL/6J-Apc min mice; settings: 100 mg/kg orally once-daily; vehicle 47±7, baseline 23±4
Experimental: The ability of Compound 50 to inhibit angiogenesis and tumor growth was tested in a spontaneous tumor model. the pre-cancerous polyp formation in the mouse model of human intestinal tumorigenesis.
Transgenic C57BL/6J-Apc min mice heterozygous for a dominant nonsense Apc mutation are highly susceptible to spontaneous intestinal adenoma formation (homozygous mice are not viable). One hundred percent of these animals will develop polyps by 12 weeks of age. This model is widely used for studying prevention of intestinal adenoma formation and is well described in the literature (Yang K, Edelmann W, Fan K, et. al. A mouse model of human familial adenomatous polyposis. J Exp Zool. 1997 15; 277(3):245-54).
Female C57BL/6J-Apc^Min mice (Jackson Laboratory, MN), 5 weeks of age, were housed (up to 10 mice per group) for a minimum of one week. Animals were then sorted into treatment groups based on body weight such that the mean body weight for the animals in each group was approximately the same. Small cohorts of animals (n=6) were sacrificed at day 1, before treatment to get a baseline number of polyps (mean polyp number at beginning of study). […]
Animals in the treated group (n=10) were dosed daily with Compound 50 at 100 mg/kg orally q.d. for one week. […] The intestine of each mouse was excised, perfused, stained (0.01% Trypan Blue) and polyps were counted under 10× magnification.

[2] = In vivo tumor xenograft models overall (tolerability, body weight, plasma levels)
Experimental: Female Nu/Nu˜nuBR athymic nude mice (obtained from Charles River Laboratories), at the age of 5-6 weeks were feed water and an irradiated standard rodent diet ad libitum, and housed in specific pathogen-free conditions, according to the guidelines of the American Association for Accreditation of Lab Animal Care (AALAC).
Tumor measurements and body weights were recorded individually (2×/week) during the treatment period of the experiment. Tumors were measured using a digital caliper. Data was recorded/calculated using Study Director software (StudyLog Systems, Inc.) and graphs were created in GraphPad Prizm.
The volume of each tumor in an animal was calculated according to the formula: (D×d^2)/2, where the diameters were determined from two orthogonal measurements on each tumor. The mean tumor volume was determined by averaging all tumor volumes in each group. The mean body weight was determined by averaging all body weights in each group.

murine Aurora-A = target: T3, murine Aurora-A (Mus musculus, UniProt P97477); test: Aurora-A Screening Assay; format: biochemical
T3 construct: replaced with the full length protein encoding the murine Aurora-A; made in house; host or cells: sf9 insect cells
T3 sequence (P97477 1-395): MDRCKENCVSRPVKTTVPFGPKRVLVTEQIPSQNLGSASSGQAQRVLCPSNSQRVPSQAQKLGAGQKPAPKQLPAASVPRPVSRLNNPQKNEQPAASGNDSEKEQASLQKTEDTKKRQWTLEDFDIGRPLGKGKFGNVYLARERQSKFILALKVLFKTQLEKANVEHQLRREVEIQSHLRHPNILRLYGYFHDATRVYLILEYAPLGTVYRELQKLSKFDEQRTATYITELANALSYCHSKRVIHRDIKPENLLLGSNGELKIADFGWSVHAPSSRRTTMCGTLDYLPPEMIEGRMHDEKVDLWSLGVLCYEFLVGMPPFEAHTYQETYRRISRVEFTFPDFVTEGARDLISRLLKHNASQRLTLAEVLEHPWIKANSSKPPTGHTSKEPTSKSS

[3] = system: Human Umbilical Vein Endothelial Cells (HUVEC); test: VEGF Mediated Cell Migration Assay; format: cell-based; settings: VEGF 10 ng/mL, VEGF control = 100%
[4] = 100 mg/kg daily, 24-28 days of treatment
[5] = A431 and HCT116 models, continuous administration for 24 days

T1 sequence (P04626 676-1255 limits assumed): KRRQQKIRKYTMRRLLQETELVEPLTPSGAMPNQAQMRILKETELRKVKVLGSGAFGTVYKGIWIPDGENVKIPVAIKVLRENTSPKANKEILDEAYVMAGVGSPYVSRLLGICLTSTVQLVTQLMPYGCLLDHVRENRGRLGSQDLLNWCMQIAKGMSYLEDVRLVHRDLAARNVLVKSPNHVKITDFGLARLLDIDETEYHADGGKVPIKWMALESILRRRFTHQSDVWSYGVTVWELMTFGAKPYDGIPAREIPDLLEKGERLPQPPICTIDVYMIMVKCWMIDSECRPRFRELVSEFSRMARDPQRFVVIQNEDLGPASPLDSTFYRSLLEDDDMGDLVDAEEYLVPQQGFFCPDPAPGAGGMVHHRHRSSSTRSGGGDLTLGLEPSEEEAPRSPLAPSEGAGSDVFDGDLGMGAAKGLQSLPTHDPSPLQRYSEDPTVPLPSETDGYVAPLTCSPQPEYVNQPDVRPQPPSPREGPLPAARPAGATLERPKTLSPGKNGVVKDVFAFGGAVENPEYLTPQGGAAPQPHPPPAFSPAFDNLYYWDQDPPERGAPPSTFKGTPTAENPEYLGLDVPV

Compound `CCNC(=O)Nc1ccc(Oc2ncnc(N)c2/C=N/OC)cc1Cl` [Cpd 50, 1-{4-[6-amino-5-(methoxyimino-methyl)-pyrimidin-4-yloxy]-2-chloro-phenyl}-3-ethyl-urea] has an IC50 (HER2 cytoplasmic domain) of over 100 µM, an IC50 (CDK1:Cyclin-B) of over 100 µM and a polyp counts [1] of 27±7. For the same compound, the “inhibition in tumor xenograft models” value ([2]; 10 mg/kg qd) was 28-48%, the plasma levels ([2]; 100 mg/kg daily dosing schedule, oral, mice) was 20 µM and the body weight [2, 4] was “no reduction of body weight”. The tolerability [2, 4] was “well-tolerated”, the treatment-related deaths [2, 4] was “no treatment-related deaths” and the body weights [2, 5] was “comparable with control animals”. The tolerability [2, 5] was “well tolerated”, the IC50 (murine Aurora-A) was over 100 µM and the “% Stimulation of cell migration” value ([3]; 50 nM) was 82%. For the same compound, the “% Stimulation of cell migration” value ([3]; 100 nM) was 60%, the “% Stimulation of cell migration” value ([3]; 500 nM) was 59% and the “% Stimulation of cell migration” value ([3]; 1 μM) was 34.5%.
